How the values were obtained:
[1] = system: C. elegans; assay: Survival (life expectancy and lifespan) of C. elegans in liquid culture; assay type: in vivo; settings: for life expectancy / lifespan: liquid culture, 25 degrees Celsius; for life expectancy: control 19 days; for lifespan: control 28 days
Method: The effect of geranylacetone (GA) and geranylgeranyl acetone (GGA) on the lengthening of lifespan and life expectancy was studied using the model organism, C. elegans, a system that is commonly used to study aging. GA and GGA were tested at three different concentrations of 5 μM 50 μM and 500 μM. The drugs were dissolved in ethanol, and thus ethanol with no drug present was used as the control in these experiments. 100 worms were used to test each concentration of the drug. GA is assumed to be a pure drug at 4.3 M and was dissolved in 100% ethanol. The drug was then diluted in S basal plus cholesterol plus bacteria OP50 such that the final concentration of ethanol on all plates was 1%. GGA was treated as 10% active with an inert carrier. Thus, all treatments were done with a 10-fold increase over the calculated concentration. GGA was suspended in 100% ethanol at 50 degrees Celsius and mixed for about hour after which the supernatant from this mixture was used. The drug was then diluted in S basal plus cholesterol plus bacteria OP50 such that the final concentration of ethanol on all plates was 1%. Wild type N2 C. elegans were obtained from the University of Minnesota Caenorhabditis Genetics Center. All assays were conducted on OP50 (CGCb) using 1× M9 OP50 worm food solution. Survival experiments were carried out in duplicate culture (2 cohorts, 50 worms each) at 25 degrees Celsius. Worms were exposed to the drugs at day 3 of life when set up in liquid culture with OP50 at 10^9 bacteria/ml. Worms were transferred daily for the first six days to remove progeny and to assess mortality. At day 10 and thereafter transfers were done 3 times per week. At each transfer, fresh drug was added to the desired concentration in a manner to achieve a final ethanol concentration of 1%.

[2] = system: C. elegans; assay: Lifespan of C. elegans under agar culture conditions; assay type: in vivo
Method: Additional studies to determine the effect of GGA on lifespan were performed using agar culture conditions. […] 100 μM GGA produces an 11% mean and 13% maximum percent increase in lifespan (Pvalue=0.039). The methods described above for the testing of GGA were employed in the testing of the class IIIa compound, LSG 712. […] 100 μM LSG 712 produces an 12% mean percent extension in lifespan (Pvalue=0.055).

[3] = system: C. elegans; assay: Age dependent accumulation of lipofuscin pigment in C. elegans (confocal fluorescence); assay type: in vivo; settings: for accumulation of lipofuscin: day 8, control about 65
Method: The effect of GGA on the age dependent accumulation of lipofuscin pigment was measured in C. elegans after treatment of worms with various concentrations of the drug. Wild type C. elegans were obtained from the University of Minnesota Caenorhabditis Genetics Center. A 250 mM stock of GGA was dissolved in ethanol and then diluted into 1× M9 OP50 worm food solution. Synchronized eggs were placed on plates containing no drug, 5 μM, 50 μM, or 500 μM GGA and allowed to hatch. On day 8, the worms were washed in 9M buffer and placed on a microscope slide. The amount of lipofuscin pigment was measured using a confocal microscope measuring fluorescence at 488 nm. Fluorescent scans were performed to quantify the amount of lipofuscin pigment. The quantification was normalized to the total area size of the worm in nm^2. The effect of LSG 712 on the age dependent accumulation of lipofuscin pigment was measured in C. elegans after treatment of worms with various concentrations of the drug. Synchronized eggs were placed on plates containing no drug and various concentrations of LSG 712 and allowed to hatch. On day 16, the worms were washed in 9M buffer and placed on a microscope slide. The amount of lipofuscin pigment was measured using a confocal microscope measuring fluorescence at 488 nm.

[4] = system: serum thioredoxin; assay: Serum thioredoxin levels in human volunteers given GGA; assay type: in vivo; settings: three 50 mg capsules per day, pre-treatment about 175 ng/ml
Method: To test the effect of GGA in providing oxidative stress protection in humans, 2 human volunteers were given three 50 mg capsules of GGA per day. Serum levels of thioredoxin, a protein important in protection from oxidative stress was measured at various time intervals as shown in FIG. 9.

[5] = system: C. elegans; assay: Cumulative percent loss of C. elegans cultured on agar plates over time; assay type: in vivo
Method: Another assay that can be used to measure lifespan extension in C. elegans is to measure the cumulative percent loss of C. elegans cultured on agar plates over time in the presence of GGA (LSG 711). C. elegans were maintained as described above. […] Lifespan extension in the presence of the class IIIa compound where R2 is acetone (LSG 712) was also measured in C. elegans using the cumulative percent loss of C. elegans over time as an assay. The methods described above for the testing of GGA were employed in the testing of LSG 712.

[6] = system: C. elegans; assay: Thermotolerance of C. elegans (35 degrees, SYTOX green fluorescence); assay type: in vivo
Method: The thermotolerance experiments were performed by workers at the Buck Institute on Aging in Novato, California under contract with the applicant. The workers at the Buck Institute performed these experiments under the direction and control of the applicant. The method used is that described in Sampayo et al., Aging Cell, 2: 319-326 (2003). In brief, 50 μl of the test compound dilution was added to a 10 ml week old agar plate spotted with 200 μl of concentrated E. coli OP50. The plates were set aside for 2-5 hours to allow the compounds to disperse. Age synchronous worm cultures of wide type (N2 strain) worms were prepared by hypochroride treatment of fertile adults and grown to three days of age at 20° C. The worms were washed off, resuspended in a small volume of S-basal and approximately 1000 worms were spotted onto each compound plate (˜1000 worms per plate) and the plates were incubated at 20° C. for 24 hours. Thermotolerance was measured using a Fluorskan Ascent fluorometer (Thermo Labsystems, MA). The fluorometer temperature was set to 35 °C and the fluorescence was measured in each well every 30 minutes over a 20-24 hour period, with a 20 millisecond integration time for each well. For SYTOX green fluorescence, the excitation wavelength was set to 485 nm and the emission wavelength at 538 nm. Analysis of individual fluorescence curves to determine the time of death was performed using the Fluoroskan Ascent software. Differences in thermotolerance were assessed using the Mantel-Haenszel Logrank test as implemented in Prism (GraphPad Software Inc.). Kaplan-Meier survival curves were generated using Prism survival analysis. […] C. elegans were maintained and handled as described above. The effect of a GGA analogue promoting thermotolerance was tested. The thermotolerance experiments were performed by workers at the Buck Institute on Aging in Novato, California under contract with the applicant. The workers at the Buck Institute performed these experiments under the direction and control of the applicant. […]

[7] = Extrapolation of C. elegans survival data to human life expectancy and lifespan
Excerpt: The extension of life span in the nematode can also be directly measured. The inventor has discovered that feeding GGA to nematodes increased both the mean and maximum lifespan of the nematode by about 50 percent. The increase in lifespan found in the nematode is equivalent to an increase in human life expectancy from 75 years to about 112 years and human lifespan from 120 years to 180 years.

[8] = feeding to nematodes, summary statement, concentration not given
[9] = extrapolated from C. elegans survival at 500 μM (FIG. 3)

Molecule `CC(=O)CC/C=C(\C)CCC=C(C)C` [GA, geranylacetone] has a life expectancy ([1]; 5 μM) of 21 days, a lifespan ([1]; 5 μM) of 32 days and a life expectancy ([1]; 50 μM) of 21 days. It also gave a lifespan ([1]; 50 μM) of 30 days.

With `CC(=O)CC/C=C(\C)CC/C=C(\C)CC/C=C(\C)CCC=C(C)C` [GGA, Geranylgeranyl acetone] the life expectancy ([1]; 5 μM) was 21 days, the lifespan ([1]; 5 μM) was 33 days and the life expectancy ([1]; 50 μM) was 23 days. For the same molecule, the lifespan ([1]; 50 μM) was 35 days, the life expectancy ([1]; 500 μM) was 23 days and the lifespan ([1]; 500 μM) was 37 days. For the same molecule, the “increase of maximum lifespan of the nematode” value [1, 8] was “about 50%”, the “increase of mean lifespan of the nematode” value [1, 8] was “about 50%” and the “maximum percent increase in lifespan” value ([2]; 50 μM) was 8%. For the same molecule, the “mean percent increase in lifespan” value ([2]; 50 μM) was 11%, the “maximum percent increase in lifespan” value ([2]; 100 μM) was 13% and the “mean percent increase in lifespan” value ([2]; 100 μM) was 11%. For the same molecule, the accumulation of lipofuscin ([3]; 5 μM) was “about 15 autofluorescent intensity/area units”, the accumulation of lipofuscin ([3]; 50 μM) was “under 5 autofluorescent intensity/area units” and the accumulation of lipofuscin ([3]; 500 μM) was “under 10 autofluorescent intensity/area units”. For the same molecule, the “lipofuscin accumulation by confocal fluorescence microscopy (FIG. 5)” value ([3]; qualitative) was “reduction of lipofuscin accumulation”, the serum thioredoxin ([4]; one volunteer, after approximately 32 days) was “about 275 ng/ml” and the serum thioredoxin ([4]; second volunteer) was “about 425 ng/ml”. The “maximum percent increase in protection” value ([5]; 50 μM) was −7%, the “mean percent increase in protection” value ([5]; 50 μM) was −4% and the “maximum percent increase in protection” value ([5]; 100 μM) was 12%. The “mean percent increase in protection” value ([5]; 100 μM) was 7%, the “maximum increase in lifespan extension (thermotolerance)” value ([6]; 500 μM) was 27% and the “mean increase in lifespan extension (thermotolerance)” value ([6]; 500 μM) was 29%. For the same molecule, the “equivalent human life expectancy” value ([7]; equivalent of nematode lifespan increase, from 75 years) was “about 112 years”, the equivalent human lifespan ([7]; equivalent of nematode lifespan increase, from 120 years) was 180 years and the “predicted human life expectancy” value [7, 9] was 85-100 years. For the same molecule, the “predicted human life span” value [7, 9] was 120-159 years.

In the case of `CC(=O)/C=C/C=C(\C)CC/C=C(\C)CC/C=C(\C)CCC=C(C)C` [LSG 712], the “mean percent increase in lifespan” value ([2]; 50 μM) is reported as 12%, the “mean percent increase in lifespan” value ([2]; 100 μM) is reported as 12% and the “reduction in the amount of lipofuscin pigment” value ([3]; day 16, compared with non-treated control worms, concentration not given) is reported as 50%. The “maximum percent increase in protection” value ([5]; 50 μM) was 25%, the “mean percent increase in protection” value ([5]; 50 μM) was 21% and the “maximum percent increase in protection” value ([5]; 100 μM) was 20%. For the same molecule, the “mean percent increase in protection” value ([5]; 100 μM) was 12% and the “mean increase in lifespan extension (thermotolerance)” value ([6]; 100 μM) was 19%.

— patent US20060135623A1, “Decrease in oxidative stress status through the administration of natural products and pharmaceutical drugs” (priority 2004, published 2006)
